This passage reports EC50 and CC50 results from patent US20050222198A1, “Imidazo[4,5-c]pyridine compounds and methods of antiviral treatment” (priority 2003, published 2005).

Common to all, as to format: cell-based
Series [1] deals with HCV replicon. The series is described as follows: Anti-HCV assay/Replicon assay 2 (luciferase). The following applies: Hepatitis C virus, 72 h, 3 days. The procedure:
• HCV Replicon Media • DMEM w/High Glucose (or MEM) • 1× Glutamine • 1× Sodium Pyruvate • 10% Heat Inactivated FBS • 1× Antibiotics Cell Culture Preparation • 1. Unthaw frozen stock in 10-12 mls of Media • 2. Allow cells to attach before adding G418 (4-6 hrs) • 3. Add G418 for a final concentration of 200 ug/mL (higher amounts are possible but cells grow slowly) • 4. Split cells 1:4 to 1:6 for optimal growth • 5. In-house replicon seems to maintain Luciferase signal for ˜20 passages HCV Replicon Assay • 1. Dilute compounds in 100 uL of HCV Replicon Media (without G418). If compounds are diluted in DMSO add DMSO to media (Final DMSO concentration should be <1%) • 2. Once cells have reached 80-90% confluency, trypsinize with 1× Trypsin • 3. […] These cells tend to clump if over trypsinized • 4. For 96 well format add 6,000-8,000 cells per well (G418 is withheld during compound testing) • 5. Incubate for 3 days at 37° C. Cells should be very close to confluent. • 6. Remove media and wash cells with 1×PBS • 7. Remove PBS and add 100 μL of 1×Promega Lysis Buffer • 8. Incubate cells at Room Temperature for 5-20 minutes • 9. Add 100 μL of room temperature Luciferase Substrate Solution (Promega) to Microfluor Black Plate (VWR) • 10. Thoroughly Mix Cell lysate (pipet up and down) before adding to Luciferase substrate • 11. Add 75 μL of lysate to the Luciferase substrate solution • 12. Read Plate On Top Count (FusionLucB program˜5 second read) • 13. Left over lysate can be frozen and used for later analysis Determination of Cytostatic Effect on MDBK Cells
On the technique in general: Replicon systems follow genome replication, usually without infectious particles.

Series [2] can be described thus: HCV CC50 assay protocol (MTT). The following applies: HCV replicon cells. The protocol:
(§1) • HCV Replicon Media • DMEM w/High Glucose (or MEM) • 1×Glutamine • 1× Sodium Pyruvate • 10% Heat Inactivated FBS • 1× Antibiotics Cell Culture Preparation • 1. Unthaw frozen stock in 10-12 mls of Media • 2. Allow cells to attach before adding G418 (4-6 hrs) • 3. Add G418 for a final concentration of 200 ug/ml (higher amounts are possible but cells grow slowly) • 4. Split cells 1:4 to 1:6 for optimal growth • 5. In-house replicon seems to maintain Luciferase signal for ˜20 passages HCV Replicon Assay • 1 Dilute compounds in 100 uL of HCV Replicon Media (without G418). If compounds are diluted in DMSO add DMSO to media (Final DMSO concentration should be <1%) • 2. Once cells have reached 80-90% confluency, trypsinize with 1×Trypsin • 3. […] These cells tend to clump if over trypsinized • 4. For 96 well format add 6,000-8,000 cells per well (G418 is withheld during compound testing) • 5. Incubate for 3 days at 37° C. Cells should be very close to confluent. • 6. Remove media and add 200 μL of a 0.2 mg/mL MTT solution prepared in media. • 7. Incubate for 1.5 hours to 2 hours. • 8. Remove media and add 150 μL of DMSO • 9. Mix and incubate for 5 mins at room temperature • 10. Read plate at 530 nm in the plate reader. Results

For series [3], the system named is HCV replicon cells. Nature of the series: HCV CC50 assay protocol (MTT). The settings on record: 3 days. The protocol:
as §1

`Fc1ccccc1-c1nc2ccn(Cc3cc(-c4ccc(Cl)cc4)no3)cc-2n1` [Example 2, 5((3-(4-chlorophenyl)isoxazol-5-yl)methyl)-2-(2-fluorophenyl)-5H-imidazo[4,5-c]pyridine] registered an EC50 in series [1] of 0.01 µM. Further, half-maximal cytotoxicity in series [2] (CC50 at 3 days) was put at 26 µM.

In the case of `Fc1cccc(-c2nc3ccn(Cc4ccc(OC(F)(F)F)cc4)cc-3n2)c1F` [Example 3A, 5-(4-(trifluoromethoxy)benzyl)-2-(2,3-difluorophenyl)-5H-imidazo[4,5-c]pyridine], in series [1], the EC50 stood at 0.02 µM. For the same compound, in series [2], the 50% cytotoxic concentration (CC50) at 3 days is 34 µM.

For the compound `Fc1cccc(-c2nc3ccn(Cc4cc(-c5ccc(Cl)cc5)no4)cc-3n2)c1F` [Example 5, 5-((3-(4-chlorophenyl)isoxazol-5-yl)methyl)-2-(2,3-difluorophenyl)-5H-imidazo[4,5-c]pyridine], the response in series [1] was half-maximal at 0.0039 µM (EC50). This compound also registered a CC50 at 3 days in series [2] of 10.8 µM. Further, in series [3], it took 13.4 µM to reach half-maximal cytotoxicity (CC50).

`Fc1ccc(-c2ccc(Cn3ccc4nc(-c5cccc(F)c5F)nc-4c3)cc2)c(F)c1` [Example 4, 5-(2,4-difluoro-biphenyl)methyl-2-(2,3-difluorophenyl)-5H-imidazo[4,5-c]pyridine] yielded an EC50 in series [1] of 0.01 µM. In series [2], this compound displayed a half-maximal cytotoxic concentration (CC50) at 3 days of 19 µM.

A word on the EC50: it is the concentration giving half of the maximal effect. Low readings indicate a more potent agent, high ones a less potent agent. As a reminder, the CC50 is the concentration at which the toxic effect on the cells reaches its halfway point. Read a high CC50 as lower toxicity to the cells.
